Here are results for 24 molecules from US8623859B2, “Bradykinin B1 antagonists” (Evotec AG, priority 2008, dated 2014).

Where a name gives a salt, the structure may show the parent alone.

This experiment addresses T1, human B1 (Homo sapiens, UniProt P46663).
T1 construct: host or cells: CHO-K1
T1 sequence (P46663 1-353): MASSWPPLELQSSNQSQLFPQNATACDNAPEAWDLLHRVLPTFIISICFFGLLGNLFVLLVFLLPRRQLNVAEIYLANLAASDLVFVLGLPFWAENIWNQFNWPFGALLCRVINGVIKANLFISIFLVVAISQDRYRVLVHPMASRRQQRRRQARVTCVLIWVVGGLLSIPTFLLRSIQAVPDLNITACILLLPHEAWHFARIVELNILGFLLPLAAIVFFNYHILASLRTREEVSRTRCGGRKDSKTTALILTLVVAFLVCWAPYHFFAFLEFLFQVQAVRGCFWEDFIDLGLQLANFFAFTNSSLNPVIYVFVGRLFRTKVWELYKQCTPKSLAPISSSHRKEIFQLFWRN
Briefly: Calcium flux assay for Bradykinin B1 antagonist, CHO-K1 cell line expressing human B1. The class given is cell-based. Conditions: CHO-K1 cells expressing human B1, agonist Lys-(Des-Arg)-Bradykinin, read-out: Potency (IC50 value against human B1). In outline: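 Inhibition of B1 agonist-evoked intracellular Ca2+ rise was followed by continuous fluorescence at 538 nm, with integrated, background-normalized signals plotted versus log compound concentration. Test compounds (eight 10-fold dilutions, triplicate, 1% DMSO final) were added 30 min at 25° C beforehand to Fluo-4AM-loaded human B1 CHO-K1 cells in pH 7.4 assay buffer.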
In general terms: Calcium assays in cells follow changes in intracellular calcium, usually with a dye or a luminescent sensor.
What is called IC50 is the point on the concentration scale where inhibition reaches its midpoint. With `COc1cc(C)c(S(=O)(=O)N(Cc2nc(C(=O)N3CCN(Cc4ccncc4F)CC3)co2)C2CC2)c(C)c1` [Ex 232, N-Cyclopropyl-N-{[4-({4-[(3-fluoropyridin-4-yl)methyl]piperazin-1-yl}carbonyl)-1,3-oxazol-2-yl]methyl}-4-methoxy-2,6-dimethylbenzenesulfonamide trifluoroacetate], the IC50 lay in the range of 0.1 to 1 µM.

In the case of `COc1cc(C)c(S(=O)(=O)N(Cc2nc(C(=O)N3CCN(Cc4c(Cl)cncc4Cl)CC3)co2)C2CC2)c(C)c1` [Ex 233, N-Cyclopropyl-N-{[4-({4-[(3,5-dichloropyridin-4-yl)methyl]piperazin-1-yl}carbonyl)-1,3-oxazol-2-yl]methyl}-4-methoxy-2,6-dimethylbenzenesulfonamide trifluoroacetate], the IC50 was 0.01 to 0.1 µM.

`COc1cc(C)c(S(=O)(=O)N(Cc2nc(C(=O)N3CCN(Cc4ccc(F)nc4)CC3)co2)C2CC2)c(C)c1` [Ex 234, N-Cyclopropyl-N-{[4-({4-[(6-fluoropyridin-3-yl)methyl]piperazin-1-yl}carbonyl)-1,3-oxazol-2-yl]methyl}-4-methoxy-2,6-dimethylbenzenesulfonamide trifluoroacetate]: the IC50 lay within 0.1 to 1 µM.

With `COc1cc(C)c(S(=O)(=O)N(Cc2nc(C(=O)N3CCN(Cc4ccc(OC)nc4)CC3)co2)C2CC2)c(C)c1` [Ex 235, N-Cyclopropyl-4-methoxy-N-{[4-({4-[(6-methoxypyridin-3-yl)methyl]piperazin-1-yl}carbonyl)-1,3-oxazol-2-yl]methyl}-2,6-dimethylbenzenesulfonamide trifluoroacetate], the IC50 is under 0.01 µM.

Take `COc1cc(C)c(S(=O)(=O)N(Cc2nc(C(=O)N3CCN(Cc4ccc(C(F)(F)F)nc4)CC3)co2)C2CC2)c(C)c1` [Ex 236, N-Cyclopropyl-4-methoxy-2,6-dimethyl-N-({4-[(4-{[6-(trifluoromethyl)pyridin-3-yl]methyl}piperazin-1-yl)carbonyl]-1,3-oxazol-2-yl}methyl)benzenesulfonamide trifluoroacetate]: the IC50 was in the range of 0.01 to 0.1 µM.

In the case of `COc1cc(C)c(S(=O)(=O)N(Cc2nc(C(=O)N3CCN(Cc4ccc(N5CCCC5)nc4)CC3)co2)C2CC2)c(C)c1` [Ex 237, N-Cyclopropyl-4-methoxy-2,6-dimethyl-N-{[4-({4-[(6-pyrrolidin-1-ylpyridin-3-yl)methyl]piperazin-1-yl}carbonyl)-1,3-oxazol-2-yl]methyl}benzenesulfonamide trifluoroacetate], the IC50 was under 0.01 µM.

On to `COc1cc(C)c(S(=O)(=O)N(Cc2nc(C(=O)N3CCN(CC4CCN(C(=O)OC(C)(C)C)CC4)CC3)co2)C2CC2)c(C)c1` [Ex 238, trifluoroacetate], for which the IC50 was in the range of 0.1 to 1 µM.

Consider `COc1cc(C)c(S(=O)(=O)N(Cc2nc(C(=O)N3CCC(C4CCNCC4)CC3)co2)C2CC2)c(C)c1` [Ex 239, N-{[4-(4,4′-Bipiperidin-1-ylcarbonyl)-1,3-oxazol-2-yl]methyl}-N-cyclopropyl-4-methoxy-2,6-dimethylbenzenesulfonamide trifluoroacetate], for which the IC50 fell in the range of 0.1 to 1 µM.

As to `COc1cc(C)c(S(=O)(=O)N(Cc2nc(C(=O)N3CCC(O)(/C=C/c4cccnc4)CC3)co2)C2CC2)c(C)c1` [Ex 240, N-Cyclopropyl-N-{[4-({4-hydroxy-4-[(E)-2-pyridin-3-ylethenyl]piperidin-1-yl}carbonyl)-1,3-oxazol-2-yl]methyl}-4-methoxy-2,6-dimethylbenzenesulfonamide trifluoroacetate], the IC50 lay in the range of 0.01 to 0.1 µM.

Turning to `COc1cc(C)c(S(=O)(=O)N(Cc2nc(C(=O)N3CCC(O)(/C=C/c4ccncc4)CC3)co2)C2CC2)c(C)c1` [Ex 241, N-Cyclopropyl-N-{[4-({4-hydroxy-4-[(E)-2-pyridin-4-ylethenyl]piperidin-1-yl}carbonyl)-1,3-oxazol-2-yl]methyl}-4-methoxy-2,6-dimethylbenzenesulfonamide trifluoroacetate], the IC50 lay within 0.01 to 0.1 µM.

Consider `CCN1CCN(CCCNC(=O)c2coc(CN(C3CC3)S(=O)(=O)c3c(C)cc(OC)cc3C)n2)CC1` [Ex 242, 2-({Cyclopropyl[(4-methoxy-2,6-dimethylphenyl)sulfonyl]amino}methyl)-N-[3-(4-ethylpiperazin-1-yl)propyl]-1,3-oxazole-4-carboxamide trifluoroacetate], for which the IC50 was in the range of 0.01 to 0.1 µM.

Take `COc1cc(C)c(S(=O)(=O)N(Cc2nc(C(=O)N(C)C3CCC(N4CCN(C)CC4)CC3)co2)C2CC2)c(C)c1` (stereo not drawn) [Ex 243, 2-({Cyclopropyl[(4-methoxy-2,6-dimethylphenyl)sulfonyl]amino}methyl)-N-methyl-N-[4-(4-methylpiperazin-1-yl)cyclohexyl]-1,3-oxazole-4-carboxamide trifluoroacetate]: the IC50 lay in the range of 0.01 to 0.1 µM.

On to `COc1cc(C)c(S(=O)(=O)N(Cc2nc(C(=O)N(C)C3CCCC(N4CCN(C)CC4)C3)co2)C2CC2)c(C)c1` (stereo not drawn) [Ex 244, 2-({Cyclopropyl[(4-methoxy-2,6-dimethylphenyl)sulfonyl]amino}methyl)-N-methyl-N-[3-(4-methylpiperazin-1-yl)cyclohexyl]-1,3-oxazole-4-carboxamide], for which the IC50 was under 0.01 µM.

Turning to `COc1cc(C)c(S(=O)(=O)N(Cc2cnc(C(=O)N3CCN(CC4CCN(C)CC4)CC3)o2)C2CC2)c(C)c1` [Ex 245, N-Cyclopropyl-4-methoxy-2,6-dimethyl-N-{[2-({4-[(1-methylpiperidin-4-yl)methyl]piperazin-1-yl}carbonyl)-1,3-oxazol-5-yl]methyl}benzenesulfonamide], the IC50 lay within 0.1 to 1 µM.

As to `COc1cc(C)c(S(=O)(=O)N(Cc2nc(C(=O)N3CCC(O)(COCCN(C)C)CC3)co2)C2CC2)c(C)c1` [Ex 246, N-Cyclopropyl-N-({4-[(4-{[2-(dimethylamino)ethoxy]methyl}-4-hydroxypiperidin-1-yl)carbonyl]-1,3-oxazol-2-yl}methyl)-4-methoxy-2,6-dimethylbenzenesulfonamide trifluoroacetate], the IC50 is 0.01 to 0.1 µM.

Turning to `COc1cc(C)c(S(=O)(=O)N(Cc2nc(C(=O)N3CCC(OC4CCN(C)C4)CC3)co2)C2CC2)c(C)c1` (stereo not drawn) [Ex 247, N-Cyclopropyl-4-methoxy-2,6-dimethyl-N-{[4-({4-[(1-methylpyrrolidin-3-yl)oxy]piperidin-1-yl}carbonyl)-1,3-oxazol-2-yl]methyl}benzenesulfonamide], the IC50 lay in the range of 0.1 to 1 µM.

As to `COc1cc(C)c(S(=O)(=O)N(Cc2nc(C(=O)N3CCC(OC4CCCN(C)C4)CC3)co2)C2CC2)c(C)c1` (stereo not drawn) [Ex 248, N-Cyclopropyl-4-methoxy-2,6-dimethyl-N-{[4-({4-[(1-methylpiperidin-3-yl)oxy]piperidin-1-yl}carbonyl)-1,3-oxazol-2-yl]methyl}benzenesulfonamide trifluoroacetate], the IC50 fell in the range of 0.01 to 0.1 µM.

Take `COc1cc(C)c(S(=O)(=O)N(Cc2nc(C(=O)N3CCN(Cc4c[nH]cn4)CC3)co2)C2CC2)c(C)c1` [Ex 249, N-Cyclopropyl-N-[(4-{[4-(1H-imidazol-4-ylmethyl)piperazin-1-yl]carbonyl}-1,3-oxazol-2-yl)methyl]-4-methoxy-2,6-dimethylbenzenesulfonamide]: the IC50 was in the range of 0.01 to 0.1 µM.

As to `COc1cc(C)c(S(=O)(=O)N(Cc2nc(C(=O)N3CCN(Cc4c[nH]c(C)n4)CC3)co2)C2CC2)c(C)c1` [Ex 250, N-Cyclopropyl-4-methoxy-2,6-dimethyl-N-{[4-({4-[(2-methyl-1H-imidazol-4-yl)methyl]piperazin-1-yl}carbonyl)-1,3-oxazol-2-yl]methyl}benzenesulfonamide], the IC50 was under 0.01 µM.

For the molecule `COc1cc(C)c(S(=O)(=O)N(Cc2nc(C(=O)N3CCN(Cc4cncn4C)CC3)co2)C2CC2)c(C)c1` [Ex 251, N-Cyclopropyl-4-methoxy-2,6-dimethyl-N-{[4-({4-[(1-methyl-1H-imidazol-5-yl)methyl]piperazin-1-yl}carbonyl)-1,3-oxazol-2-yl]methyl}benzenesulfonamide], the IC50 was 0.1 to 1 µM.

Regarding `COc1cc(C)c(S(=O)(=O)N(Cc2nc(C(=O)N3CCN(Cc4ccnc(C)c4)CC3)co2)C2CC2)c(C)c1` [Ex 252, N-Cyclopropyl-4-methoxy-2,6-dimethyl-N-{[4-({4-[(2-methylpyridin-4-yl)methyl]piperazin-1-yl}carbonyl)-1,3-oxazol-2-yl]methyl}benzenesulfonamide], the IC50 is under 0.01 µM.

For `COc1cc(C)c(S(=O)(=O)N(Cc2nc(C(=O)N3CCN(Cc4cccnc4N)CC3)co2)C2CC2)c(C)c1` [Ex 253, N-{[4-({4-[(2-Aminopyridin-3-yl)methyl]piperazin-1-yl}carbonyl)-1,3-oxazol-2-yl]methyl}-N-cyclopropyl-4-methoxy-2,6-dimethylbenzenesulfonamide], the IC50 was under 0.01 µM.

In the case of `COc1cc(C)c(S(=O)(=O)N(Cc2nc(C(=O)N3CCN(Cc4cnc5ccccc5c4)CC3)co2)C2CC2)c(C)c1` [Ex 254, N-Cyclopropyl-4-methoxy-2,6-dimethyl-N-[(4-{[4-(quinolin-3-ylmethyl)piperazin-1-yl]carbonyl}-1,3-oxazol-2-yl)methyl]benzenesulfonamide], the IC50 was under 0.01 µM.

In the case of `COc1cc(C)c(S(=O)(=O)N(Cc2nc(C(=O)N3CCN(Cc4c[nH]nc4C)CC3)co2)C2CC2)c(C)c1` [Ex 255, N-Cyclopropyl-4-methoxy-2,6-dimethyl-N-{[4-({4-[(3-methyl-1H-pyrazol-4-yl)methyl]piperazin-1-yl}carbonyl)-1,3-oxazol-2-yl]methyl}benzenesulfonamide], the IC50 was in the range of 0.01 to 0.1 µM.
